Experimental data taken from patent US8003096B2, “Means and methods for the recruitment and identification of stem cells” (Vlaams Interuniversitair Instituut voor Biotechnologie VZW, priority 2003, dated 2011).

Experiments:
plasmin = assay: Plasmin activity in BM plasma, chromogenic assay; format: in vivo, mouse; conditions: WT mice
Procedure: (§1) To study the role of the plasminogen proteinase system with its plasminogen activators tPA and uPA, and active plasmin in stem/progenitor cell mobilization, mice lacking plasminogen (Plg^−/−), tPA (tPA^−/−), uPA (uPA^−/−) and both activators (tPA^−/−uPA^−/−) were used.^(17, 18) Age- and sex-matched mice were kept in IVC cages. Mobilization was induced either via a single sublethal injection i.v. of the myeloablative agent 5-fluorouracil (5-FU, 200-250 mg/kg), or via administration s.c. of recombinant human G-CSF (Filgrastim, Amgen, 200 μg/kg/d) for five consecutive days.^(12) Peripheral blood (PB) samples were obtained by retro-orbital bleeding under light anesthesia. Full blood counts were determined on the Abbott Cell Dyn 1300 hemocytometer. The number of mobilized hematopoietic progenitor cells (HPCs) in the circulation was determined via methylcellulose-based CFU-C assays (MethoCult, Stem Cell Technologies), per 10^5 peripheral blood mononuclear cells (PB MNCs).^(12) The number of mobilized hematopoietic stem cells (HSCs) in the circulation was quantified via splenic colony-forming assays (CFU-S), and evaluated for long-term engraftment via transplantation into lethally irradiated syngeneic wild-type recipients (9.5 Gy total body irradiation). […]

[1] = format: in vivo, mouse
Procedure: as §1
Wild-type mice and mice lacking Plg, both tPA and uPA, tPA, uPA, uPAR, PAI-1, α2AP, MMP-2 (kind gift from S. Itohara), MMP-3 (kind gift from J. Mudgett), MMP-9, MMP-12 (kind gift from S. Shapiro), and TIMP-1 (obtained by courtesy of P. Soloway) were used, and housed in barrier cages (individually ventilated) (Heymans et al. (1999), Nat. Med. 5:1135-42). […] Peripheral blood was repetitively sampled by retro-orbital puncture under light anesthesia, and full blood counts (EDTA buffered) were determined on a hemocytometer (Abbott Cell Dyn 1300). Peripheral blood smears were stained using Giemsa-May-Grunwald and at least 200 cells were analyzed. […]

fibronectin, collagen IV = assay: Immunostaining of BM sections for ECM proteins; format: in vivo, mouse
Procedure: Mice were killed via cervical dislocation, femurs were removed, fixed in 2% paraformaldehyde in PBS for 24 hours, and decalcified in EDTA solution. After dehydration and paraffin embedding, 10 μm transverse sections were prepared on Superfrost Plus slides. Immunohistochemistry was performed using antibodies against VWF (DAKO), MMP-9 (Oncogene), tPA, uPA, MMP-2, MMP-3, MMP-12 (Santa Cruz), laminin, fibronectin (Sigma), and collagen IV (kind gift from A. Noel). Analysis was performed on a Zeiss Axioplan2, a 3CCD video camera (DXC-93OP, Sony), and KS300 software.

In the case of `O=c1[nH]cc(F)c(=O)[nH]1` [5-FU, 5-fluorouracil], the “plasmin activity in BM plasma” value (plasmin; after single i.v. bolus, N=4) is reported as 75±14 U, the “elevation of plasmin activity in BM plasma above baseline” value (plasmin; single i.v. bolus) is reported as “five-fold” and the mice that died ([1]; Plg−/− or tPA−/−uPA−/− mice, sublethal dose) is reported as “up to 75%”. For the same compound, the “mice that did not survive” value ([1]; WT mice, sublethal dose) was 10%, the “time to recovery from drop in WBC, RBC and platelet counts” value ([1]; mouse, in vivo) was 2.5-3 weeks and the “collagen-IV+ area as % of total area” value (fibronectin, collagen IV; 5-FU-treated WT mice) was 21±1%. For the same compound, the “fibronectin+ area as % of total area” value (fibronectin, collagen IV; 5-FU-treated WT mice) was 9±1%, the “collagen-IV+ area as % of total area” value (fibronectin, collagen IV; 5-FU-treated uPA−/− mice) was 26±1% and the “fibronectin+ area as % of total area” value (fibronectin, collagen IV; 5-FU-treated uPA−/− mice) was 14±2%.
